# Test results as given in ChEMBL document CHEMBL4616581, “Current scenario of artemisinin and its analogues for antimalarial activity” (Eur J Med Chem, 2019).
# Tests used:
# Assay type in all cases: functional, organism-based
# Plasmodium falciparum [1] = assay: Antimalarial activity against Plasmodium falciparum K1 after 48 hrs by [3H]hypoxanthine incorporation assay
# Plasmodium falciparum [2] = assay: Antimalarial activity against Plasmodium falciparum HB3 after 48 hrs by [3H]hypoxanthine incorporation assay
# Plasmodium falciparum [3] = assay: Antimalarial activity against chloroquine-resistant Plasmodium falciparum K1 after 72 hrs by SYBR green dye-based spectrofluorometer analysis; settings: K1, 72 h
# Plasmodium falciparum [4] = assay: Antimalarial activity against chloroquine-sensitive Plasmodium falciparum 3D7 after 72 hrs by SYBR green dye-based spectrofluorometer analysis; settings: 3D7, 72 h
# Plasmodium falciparum [5] = assay: Antimalarial activity against chloroquine-sensitive Plasmodium falciparum NF54
# Plasmodium falciparum [6] = assay: Antimalarial activity against Plasmodium falciparum W2 after 48 hrs by in presence of [3H]hypoxanthine
# Plasmodium falciparum [7] = assay: Antimalarial activity against Plasmodium falciparum D6 after 48 hrs by in presence of [3H]hypoxanthine
# Plasmodium falciparum [8] = assay: Antimalarial activity against Plasmodium falciparum HB3 after 48 hrs by [3H]-hypoxanthine incorporation assay
# Plasmodium falciparum [9] = assay: Antimalarial activity against chloroquine-resistant Plasmodium falciparum K1 after 48 hrs by [3H]-hypoxanthine incorporation assay
# Plasmodium falciparum [10] = assay: Antimalarial activity against Plasmodium falciparum 3D7 after 72 hrs by SYBR green dye-based assay; settings: 3D7, 72 h
# Plasmodium falciparum [11] = assay: Antimalarial activity against Plasmodium falciparum NF54
# Plasmodium falciparum [12] = assay: Antimalarial activity against blood stages of chloroquine-sensitive Plasmodium falciparum 3D7
# Plasmodium falciparum [13] = assay: Antimalarial activity against blood stages of chloroquine-resistant Plasmodium falciparum K1
smiles,measurement,setting,value
C[C@H]1[C@@H](Oc2ccc(C(F)(F)F)cc2)O[C@@H]2O[C@]3(C)CC[C@H]4[C@H](C)CC[C@@H]1[C@@]24OO3,IC50,Plasmodium falciparum [1],5.92 nM
C[C@H]1[C@@H](Oc2cccc3ccccc23)O[C@@H]2O[C@]3(C)CC[C@H]4[C@H](C)CC[C@@H]1[C@@]24OO3,IC50,Plasmodium falciparum [1],8.89 nM
same,IC50,Plasmodium falciparum [2],7.06 nM
CCC(=O)OC1O[C@@H]2O[C@]3(C)CC[C@H]4[C@H](C)CC[C@@H]([C@H]1C)[C@@]24OO3 (stereo partly specified),EC50,Plasmodium falciparum [3],0.3 nM
same,EC50,Plasmodium falciparum [4],3.1 nM
C[C@@H]1CC[C@H]2[C@@H](C)C(CC(=O)c3ccc(C(=O)CC4O[C@@H]5O[C@]6(C)CC[C@H]7[C@H](C)CC[C@@H]([C@H]4C)[C@@]57OO6)cc3)O[C@@H]3O[C@]4(C)CC[C@@H]1[C@]32OO4 (stereo partly specified),IC50,Plasmodium falciparum [5],1.9 nM
CCOC(=O)CC[C@@H](O[C@H]1O[C@@H]2O[C@]3(C)CC[C@H]4[C@H](C)CC[C@@H]([C@H]1C)[C@@]24OO3)c1ccccc1,IC50,Plasmodium falciparum [6],0.213 ng/mL
same,IC50,Plasmodium falciparum [7],0.496 ng/mL
CCOC(=O)CC[C@@H](O[C@H]1O[C@@H]2O[C@]3(C)CC[C@H]4[C@H](C)CC[C@@H]([C@H]1C)[C@@]24OO3)c1ccc([N+](=O)[O-])cc1,IC50,Plasmodium falciparum [6],0.23 ng/mL
same,IC50,Plasmodium falciparum [7],0.563 ng/mL
CC(C)CNCCOC1O[C@@H]2O[C@]3(C)CC[C@H]4[C@H](C)CC[C@@H]([C@H]1C)[C@@]24OO3 (stereo partly specified),EC50,Plasmodium falciparum [3],2.4 nM
same,EC50,Plasmodium falciparum [4],6.8 nM
COP(=O)(OCC[C@H]1O[C@@H]2O[C@]3(C)CC[C@H]4[C@H](C)CC[C@@H]([C@H]1C)[C@@]24OO3)OCC[C@H]1O[C@@H]2O[C@]3(C)CC[C@H]4[C@H](C)CC[C@@H]([C@H]1C)[C@@]24OO3,IC50,Plasmodium falciparum [8],0.09 nM
same,IC50,Plasmodium falciparum [9],0.2 nM
C[C@@H]1CC[C@H]2[C@@H](C)C(CC(=O)c3cccc(C(=O)CC4O[C@@H]5O[C@]6(C)CC[C@H]7[C@H](C)CC[C@@H]([C@H]4C)[C@@]57OO6)c3)O[C@@H]3O[C@]4(C)CC[C@@H]1[C@]32OO4 (stereo partly specified),IC50,Plasmodium falciparum [5],1.9 nM
C[C@@H]1CC[C@H]2[C@@H](C)C(OC(=O)Cc3ccccc3)O[C@@H]3O[C@]4(C)CC[C@@H]1[C@]32OO4 (stereo partly specified),EC50,Plasmodium falciparum [3],0.5 nM
same,EC50,Plasmodium falciparum [4],2.4 nM
CCOC(=O)CC[C@H](O[C@H]1O[C@@H]2O[C@]3(C)CC[C@H]4[C@H](C)CC[C@@H]([C@H]1C)[C@@]24OO3)c1ccccc1,IC50,Plasmodium falciparum [6],0.144 ng/mL
same,IC50,Plasmodium falciparum [7],0.459 ng/mL
C[C@H]1[C@H](OC(=O)CCC(=O)Nc2ccc3ncnc(Nc4ccc(Cl)c(Cl)c4)c3c2)O[C@@H]2O[C@]3(C)CC[C@H]4[C@H](C)CC[C@@H]1[C@@]24OO3,EC50,Plasmodium falciparum [10],1.4 nM
CC1=C(/C=C/c2ccccc2)O[C@@H]2O[C@]3(C)CC[C@H]4[C@H](C)CC[C@@H]1[C@@]24OO3,IC50,Plasmodium falciparum [11],16 nM
C[C@H]1[C@H](Oc2cccc3ccccc23)O[C@@H]2O[C@]3(C)CC[C@H]4[C@H](C)CC[C@@H]1[C@@]24OO3,IC50,Plasmodium falciparum [1],2.88 nM
same,IC50,Plasmodium falciparum [2],2.88 nM
COc1cc(OC)c(C2O[C@@H]3O[C@]4(C)CC[C@H]5[C@H](C)CC[C@@H]([C@H]2C)[C@@]35OO4)cc1C1O[C@@H]2O[C@]3(C)CC[C@H]4[C@H](C)CC[C@@H]([C@H]1C)[C@@]24OO3 (stereo partly specified),IC50,Plasmodium falciparum [5],1.3 nM
C=CC1=C(C)[C@@H]2CC[C@@H](C)[C@@H]3CC[C@]4(C)OO[C@@]23[C@H](O1)O4,IC50,Plasmodium falciparum [11],28 nM
C[C@H]1[C@H](OC(=O)CCC(=O)Oc2ccc(Nc3ncnc4ccccc34)cc2)O[C@@H]2O[C@]3(C)CC[C@H]4[C@H](C)CC[C@@H]1[C@@]24OO3,EC50,Plasmodium falciparum [10],3.8 nM
CC1=C(/C=C\c2ccccc2)O[C@@H]2O[C@]3(C)CC[C@H]4[C@H](C)CC[C@@H]1[C@@]24OO3,IC50,Plasmodium falciparum [11],8.1 nM
C[C@H]1[C@@H](CCOP(=O)(OCC[C@H]2O[C@@H]3O[C@]4(C)CC[C@H]5[C@H](C)CC[C@@H]([C@H]2C)[C@@]35OO4)Oc2ccccc2)O[C@@H]2O[C@]3(C)CC[C@H]4[C@H](C)CC[C@@H]1[C@@]24OO3,IC50,Plasmodium falciparum [8],0.18 nM
same,IC50,Plasmodium falciparum [9],0.5 nM
C[C@@H]1CC[C@H]2[C@@H](C)C(=O)O[C@@H]3O[C@@]4(C)CC[C@@H]1[C@]32OO4 [ARTEMISININ],EC50,Plasmodium falciparum [12],12.1 nM
same,IC50,Plasmodium falciparum [13],0.68 ng/mL
